Series [1] is described as follows: Metabolic stability in mouse liver microsomes (MLM). It is filed as in vitro ADME. The conditions noted are these: 1 μM compound, 0.5 mg/mL MLM, 1 mM NADPH, 37° C., read-out: half-life (t1/2) towards MLM. The protocol: For the evaluation of phase I metabolic stability, the compound (1 μM) was incubated with 0.5 mg/mL MLM (Corning) and 1 mM NADPH at 37° C. for 0, 5, 10, 15 and 30 min. The metabolic stability of Verapamil, Diphenhydramine and Benzydamine (1 μM each) were determined in parallel to confirm the enzymatic activity of the MLM. The incubation was stopped by addition of 2 volumes of acetonitrile containing internal standard (1 μM Leucine Enkephaline). Samples were centrifuged (15 min, 3,500 rpm). Concentration of the remaining test compound at the different time points was analyzed by HPLC-MS/MS and used to determine half-life (t1/2).
(In general: Liver microsomes are vesicles of endoplasmic reticulum, rich in cytochrome P450 enzymes.)

Series [2] in a line: Kinetic turbidimetric aqueous solubility. Type of series: physicochemical. Conditions: aqueous buffer, kinetic from dmso stock; PBS buffer, final DMSO 2%, absorbance 620 nm; read-out: Kinetic Turbidimetric Aqueous Solubility at room temperature for 5 min. The protocol:
Kinetic Turbidimetric Aqueous Solubility at room temperature for 5 min. […] Data was analyzed by fitting a four parameter sigmoidal function to the measured and normalized absorbances and AUC calculation providing access to Log S (decadic logarithm of the solubility).

Series [3] deals with T1, PqsR (Pseudomonas aeruginosa, UniProt Q9I4X0).
T1 construct: transfected with pEAL08-2 plasmid encoding pqsR under control of promoter tac; expressed in transfected cells; host or cells: Escherichia coli DH5alpha carrying pEAL08-2
The series can be described thus: PqsR reporter gene assay in E. coli (β-galactosidase). Type of series: cell-based. The protocol:
Inhibition of pqsR-dependent gene expression of test compounds was determined in an E. coli based β-galactosidase reporter gene assay. Escherichia coli DH5α was transfected with pEAL08-2 plasmid encoding pqsR under control of promoter tac and β-galactosidase reporter gene lacZ under control of promoter pqsA. Antagonistic effects of compounds were evaluated in the presence of/in competition to 50 nM PQS. A positive control was used to ensure the reliability of individual assays. First, PQS was diluted in methanol and added to the wells of a glass coated 96-deep-well plate, and the solvent was evaporated. Then, compounds were added in 5 μL DMSO to final concentrations of 0.001-10 μM. Overnight cultures of E. coli DH5a×pEAL08-2 were diluted 1:100 in LB medium with ampicillin (50 μg/ml) and incubated at 37° C. with shaking until it reached an OD600 of 0.2. Finally, 995 μL of culture was added to each well and the β-galactosidase activity was determined by ortho-nitrophenyl-β-galactoside conversion in permeabilized cells after a 2.5 h incubation period (37° C., 180 rpm). OD600, OD420, and OD550 were measured using POLARstar Omega (BMG Labtech, Ortenberg, Germany), and the activity was expressed as ratio of the slope of β-galactosidase activity between basal control (no PQS) and solvent control, IC50 values of antagonists were determined by variation of the concentration of the test compounds.

Series [4] deals with P. aeruginosa pyocyanin production. The series can be described thus: Pyocyanin assay. Type of series: cell-based, P. aeruginosa strain PA14. Conditions: Pseudomonas aeruginosa, PA14, 16 h, read-out: IC50-value towards pyocyanin production. Here is the method:
Inhibition of P. aeruginosa pyocyanin production by compounds was determined photometrically as described before. In short, an overnight culture of PA14 in PPGAS medium was washed, diluted in medium to a start OD600 of 0.02, and incubated for 16 h (37° C., 200 rpm, relative humidity 75%) in the presence of test compounds. Then, cultures were extracted with chloroform and re-extracted with 0.2 M HCl. Protonated red colored pyocyanin was determined by measuring OD520 and normalizing to OD600.

The results in this text go back to US20230106506A1, “NOVEL PqsR INVERSE AGONISTS” (Helmholtz-Zentrum Fur Infektionsforschung GmbH, priority 2020, published 2023).

The term solubility denotes the concentration that dissolves in the medium under given conditions. As usually defined, the IC50 is the midpoint of a concentration-inhibition curve.

T1 sequence (Q9I4X0 whole entry): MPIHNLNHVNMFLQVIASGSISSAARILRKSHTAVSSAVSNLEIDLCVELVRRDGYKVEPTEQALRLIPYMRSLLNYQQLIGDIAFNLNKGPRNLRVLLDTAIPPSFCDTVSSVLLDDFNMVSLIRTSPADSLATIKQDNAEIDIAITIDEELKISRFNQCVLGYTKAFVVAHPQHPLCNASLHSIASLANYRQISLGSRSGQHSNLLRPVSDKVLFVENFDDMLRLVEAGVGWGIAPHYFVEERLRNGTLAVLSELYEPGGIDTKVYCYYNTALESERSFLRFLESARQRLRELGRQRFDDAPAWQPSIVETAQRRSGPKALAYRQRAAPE

In the case of `CC(C)Oc1ccc(-c2ncc(CNc3cc(-n4ccnc4)nc(C(F)(F)F)c3)s2)cc1` [Compound 15, 2-(1H-Imidazol-1-yl)-N-((2-(4-isopropoxyphenyl)thiazol-5-yl)methyl)-6-(trifluoromethyl)pyridin-4-amine], the half-life at 1 µM in series [1] fell in the range of 0.5 to 1 h. In addition, the solubility at 5 min in series [2] is above 10 µM. The IC50 in series [3] was at most 50 nM; in series [4], at most 100 nM.
In the same order, the values of `CC(C)Oc1ccc(-c2ncc(CNc3cc(-c4cn[nH]c4)nc(C(F)(F)F)c3)cn2)cc1Cl` [Compound 48, N-((2-(3-Chloro-4-isopropoxyphenyl)pyrimidin-5-yl)methyl)-2-(1H-pyrazol-4-yl)-6-(trifluoromethyl)pyridin-4-amine] are above 1.67 h, above 25 µM, at most 50 nM and 101 to 200 nM.
As to `CC(C)Oc1ccc(-n2cc(CNc3cc(Cl)nc(-c4cn[nH]c4)c3)nn2)cc1Cl` [Compound 08, 2-Chloro-N-((1-(3-chloro-4-isopropoxyphenyl)-1H-1,2,3-triazol-4-yl)methyl)-6-(1H-pyrazol-4-yl)pyridin-4-amine], the solubility at 5 min in series [2] was above 25 µM. Moreover, the IC50 in series [3] was at most 50 nM; in series [4], 201 to 500 nM.
Take `CC(C)Oc1ccc(-c2ncc(CNc3cc(-c4cn[nH]c4)nc(C(F)(F)F)c3)s2)cc1` [Compound 11, N-((2-(4-Isopropoxyphenyl)thiazol-5-yl)methyl)-2-(1H-pyrazol-4-yl)-6-(trifluoromethyl)pyridin-4-amine]: the half-life at 1 µM in series [1] lay in the range of 0.5 to 1 h. Further, the solubility at 5 min in series [2] was above 10 µM. For the same compound, the IC50 in series [3] is at most 50 nM; in series [4] it was at most 100 nM.
Turning to `CC(C)Oc1ccc(-n2cc(CNc3cc(C#N)nc(-c4cn[nH]c4)c3)nn2)cc1Cl` [Compound 09, 4-(((1-(3-Chloro-4-isopropoxyphenyl)-1H-1,2,3-triazol-4-yl)methyl)amino)-6-(1H-pyrazol-4-yl)picolinonitrile], the solubility at 5 min in series [2] was above 10 µM. Further, the half-maximal inhibitory concentration (IC50) is at most 50 nM in series [3] and 201 to 500 nM in series [4].
For `CC(C)Oc1ccc(-c2ncc(CNc3cc(-c4cc[nH]n4)nc(C(F)(F)F)c3)s2)cc1` [Compound 14, N-((2-(4-Isopropoxyphenyl)thiazol-5-yl)methyl)-2-(1H-pyrazol-3-yl)-6-(trifluoromethyl)pyridin-4-amine], in series [1], the half-life at 1 µM was above 1.67 h. Moreover, the solubility at 5 min in series [2] was above 10 µM. Moreover, the IC50 in series [3] was in the range of 51 to 250 nM; in series [4], 201 to 500 nM.
Regarding `CC(C)Oc1ccc(-n2cc(CNc3cc(-c4cn[nH]c4)nc(C(F)(F)F)c3)nn2)cc1Cl` [Compound 07, N-((1-(3-Chloro-4-isopropoxyphenyl)-1H-1,2,3-triazol-4-yl)methyl)-2-(1H-pyrazol-4-yl)-6-(trifluoromethyl)pyridin-4-amine], the half-life at 1 µM in series [1] fell in the range of 0.5 to 1 h. In addition, the solubility at 5 min in series [2] was above 25 µM. The IC50 in series [3] was at most 50 nM; in series [4], at most 100 nM.
For `CC(C)Oc1ccc(-c2ncc(CNc3cc(C#N)nc(-c4cn[nH]c4)c3)s2)cc1` [Compound 12, 4-(((2-(4-Isopropoxyphenyl)thiazol-5 yl)methyl)amino)-6-(1H-pyrazol-4-yl)picolinonitrile], in series [1], the half-life at 1 µM lay in the range of 0.5 to 1 h. The solubility at 5 min in series [2] is above 10 µM. In addition, the results for the half-inhibitory concentration (IC50) in series [3] and in series [4] were at most 50 nM and at most 100 nM, respectively.
`FC(F)(F)c1cc(NCc2cn(-c3ccc(Oc4ccccc4)cc3)nn2)cc(-c2cn[nH]c2)n1` [Compound 01]: in series [2], the solubility at 5 min was above 25 µM. Also, the IC50 fell in the range of 51 to 250 nM in series [3] and 101 to 200 nM in series [4].
On to `CC(C)Oc1ccc(-n2cc(CNc3cc(-c4cccnc4)nc(C(F)(F)F)c3)nn2)cc1Cl` [Compound 67, N-((1-(3-Chloro-4-isopropoxyphenyl)-1H-1,2,3-triazol-4-yl)methyl)-6-(trifluoromethyl)-[2,3′-bipyridin]-4-amine], for which the IC50 in series [3] was 51 to 250 nM.
On to `Fc1ccccc1Oc1ccc(-n2cc(CNc3cc(-c4cn[nH]c4)nc(C(F)(F)F)c3)nn2)cc1` [Compound 04, N-((1-(4-(2-Fluorophenoxy)phenyl)-1H-1,2,3-triazol-4-yl)methyl)-2-(1H-pyrazol-4-yl)-6-(trifluoromethyl)pyridin-4-amine], for which the half-life at 1 µM in series [1] lay in the range of 0.5 to 1 h. Also, the solubility at 5 min in series [2] is above 10 µM. The values for the IC50 in series [3] and in series [4] were at most 50 nM and 101 to 200 nM, respectively.
Consider `CC(C)Oc1ccc(-c2ncc(CNc3cc(-n4cncn4)nc(C(F)(F)F)c3)s2)cc1Cl` [Compound 18, N-((2-(3-Chloro-4-isopropoxyphenyl)thiazol-5-yl)methyl)-2-(7H-1,2,4-triazol-1-yl)-6-(trifluoromethyl)pyridin-4-amine], for which the half-life at 1 µM in series [1] was above 1.67 h. Further, the half-maximal inhibitory concentration (IC50) in series [3] is at most 50 nM; in series [4], at most 100 nM.
Consider `Cn1cc(-c2cc(SCc3nc4cc(Oc5ccccc5)ccc4[nH]3)cc(C(F)(F)F)n2)cn1` [Compound 65, 2-(((2-(1-Methyl-1H-pyrazol-4-yl)-6-(trifluoromethyl)pyridin-4-yl)thio)methyl)-5-phenoxy-1H-benzo[d]imidazole], for which the solubility at 5 min in series [2] is above 10 µM. The compound further came in with a half-inhibitory concentration (IC50) in series [3] of 51 to 250 nM.
`FC(F)(F)c1cc(SCc2nc3cc(Oc4ccccc4)ccc3[nH]2)cc(-n2cncn2)n1` [Compound 66, 2-(((2-(1H-1,2,4-Triazol-1-yl)-6-(trifluoromethyl)pyridin-4-yl)thio)methy)-5-phenoxy-1H-benzo[d]imidazole]: the solubility at 5 min in series [2] is above 10 µM. For the same compound, the half-inhibitory concentration (IC50) is at most 50 nM in series [3] and 101 to 200 nM in series [4].
As to `CC(C)Oc1ccc(-c2ncc(CNc3cc(-n4ccnc4)nc(C(F)(F)F)c3)s2)cc1Cl` [Compound 16, N-((2-(3-Chloro-4-isopropoxyphenyl)thiazol-5-yl)methyl)-2-(1H-imidazol-1-yl)-6-(trifluoromethyl)pyridin-4-amine], the half-life at 1 µM in series [1] was above 1.67 h. The IC50 is 51 to 250 nM in series [3] and 101 to 200 nM in series [4].
As for `Cn1cc(-c2cc(NCc3cn(-c4ccc(Oc5ccccc5)cc4)nn3)cc(C(F)(F)F)n2)cn1` [Compound 10, 2-(1-Methyl-1H-pyrazol-4-yl)-N-((1-(4-phenoxyphenyl)-1H-1,2,3-triazol-4-yl)methyl)-6-(trifluoromethyl)pyridin-4-amine], the half-life at 1 µM in series [1] was in the range of 0.5 to 1 h. Further, the solubility at 5 min in series [2] is above 25 µM. Besides, the 50% inhibitory concentration (IC50) in series [3] is at most 50 nM; in series [4] it was 201 to 500 nM.
Taken in the same sequence, the figures for `FC(F)(F)c1cc(NCc2cn(-c3ccc(Oc4ccccc4)cc3)nn2)cc(-n2cncn2)n1` [Compound 03, N-((1-(4-Phenoxyphenyl)-1H-1,2,3-triazol-4-yl)methyl)-2-(1H-1,2,4-triazol-1-yl)-6-(trifluoromethyl)pyridin-4-amine] were 1.02 to 1.67 h, above 25 µM, at most 50 nM and 201 to 500 nM.
With `FC(F)(F)c1cc(NCc2cn(-c3ccc(Oc4ccccc4)cc3)nn2)cc(-n2ccnc2)n1` [Compound 02, 2-(1H-Imidazol-1-yl)-N-((1-(4-phenoxyphenyl)-1H-1,2,3-triazol-4-yl)methyl)-6-(trifluoromethyl)pyridin-4-amine], the solubility at 5 min in series [2] was above 25 µM. Moreover, the figures for the IC50 in series [3] and in series [4] were at most 50 nM and 201 to 500 nM, respectively.
Turning to `CC(C)Oc1ccc(-c2ncc(CNc3cc(-c4cn[nH]c4)nc(C(F)(F)F)c3)cn2)cc1F` [Compound 49, N-((2-(3-Fluoro-4-isopropoxyphenyl)pyrimidin-5-yl)methyl)-2-(1H-pyrazol-4-yl)-6-(trifluoromethyl)pyridin-4-amine], the half-life at 1 µM in series [1] is above 1.67 h. In addition, the solubility at 5 min in series [2] is above 10 µM. Moreover, in series [4], the half-maximal inhibitory concentration (IC50) lay within 101 to 200 nM.
